Experimental data: ChEMBL document CHEMBL3808282, “Gram Scale Syntheses of (-)-Incarvillateine and Its Analogs. Discovery of Potent Analgesics for Neuropathic Pain” (2016)
The source made the active and inactive calls. The rule behind the calls is not given here.

How the values were obtained:
Mus musculus [1] = assay: Antinociceptive effect in Kunming mouse assessed as inhibition of acetic acid-induced writhing response at 20 mg/kg, ip administered 30 mins prior to acetic acid challenge measured 5 mins post injection for 15 mins; type: functional
Mus musculus [2] = assay: Antinociceptive effect in C57BL/6 mouse assessed as inhibition of spared nerve injury-induced neuropathic pain response at 10 to 40 mg/kg, ip measured after 5 to 7 days of recovery by Von Frey filament assay; type: functional, organism-based
Mus musculus [3] = assay: Antinociceptive activity in ICR mouse assessed as reduction in licking and biting time during second phase at 10 mg/kg, ip administered 10 mins prior to formalin challenge measured for 10 to 30 mins (reference value: 178 +/- 19 s); type: functional
Mus musculus [4] = assay: Antinociceptive effect in Kunming mouse assessed as inhibition of acetic acid-induced writhing response at 20 mg/kg, sc administered 30 mins prior to acetic acid challenge measured 5 mins post injection for 15 mins; type: functional
Mus musculus [5] = assay: Antinociceptive effect in C57BL/6 mouse assessed as inhibition of spared nerve injury-induced neuropathic pain response at 100 mg/kg, ip measured after 5 to 7 days of recovery by Von Frey filament assay; type: functional, organism-based
Mus musculus [6] = assay: Antinociceptive effect in Kunming mouse assessed as inhibition of acetic acid-induced writhing response at 100 mg/kg, ip administered 30 mins prior to acetic acid challenge measured 5 mins post injection for 15 mins; type: functional
Mus musculus [7] = assay: Antinociceptive effect in Kunming mouse assessed as inhibition of acetic acid-induced writhing response at 100 mg/kg, sc administered 30 mins prior to acetic acid challenge measured 5 mins post injection for 15 mins; type: functional
Mus musculus [8] = assay: Antinociceptive activity in ICR mouse assessed as reduction in licking and biting time during second phase at 10 mg/kg, ip administered 10 mins prior to formalin challenge measured for 10 to 30 mins (reference value: 159 +/- 15 s); type: functional
Mus musculus [9] = assay: Antinociceptive activity in ICR mouse assessed as reduction in licking and biting time during second phase at 10 mg/kg, ip administered 10 mins prior to formalin challenge measured for 10 to 30 mins (reference value: 159 +/- 25 s); type: functional
Mus musculus [10] = assay: Antinociceptive activity in ip dosed ICR mouse assessed as reduction in licking and biting time during first phase administered 10 mins prior to formalin challenge measured for 10 mins relative to vehicle control; type: functional, organism-based
Mus musculus [11] = assay: Antinociceptive effect in C57BL/6 mouse assessed as inhibition of spared nerve injury-induced neuropathic pain response at 10 to 20 mg/kg, ip measured after 5 to 7 days of recovery by Von Frey filament assay; type: functional, organism-based
Mus musculus [12] = assay: Antinociceptive activity in ICR mouse assessed as reduction in licking and biting time during first phase at 10 mg/kg, ip administered 10 mins prior to formalin challenge measured for 10 mins (reference value: 156 +/- 8 s); type: functional
Mus musculus [13] = assay: Antinociceptive activity in ip dosed ICR mouse assessed as reduction in licking and biting time during second phase administered 10 mins prior to formalin challenge measured for 10 to 30 mins relative to vehicle control; type: functional, organism-based
Mus musculus [14] = assay: Antinociceptive activity in ICR mouse assessed as reduction in licking and biting time during first phase at 20 mg/kg, ip administered 10 mins prior to formalin challenge measured for 10 mins (reference value: 156 +/- 8 s); type: functional
Mus musculus [15] = assay: Antinociceptive activity in ICR mouse assessed as reduction in licking and biting time during second phase at 20 mg/kg, ip administered 10 mins prior to formalin challenge measured for 10 to 30 mins (reference value: 159 +/- 25 s); type: functional

## C=C1CN(C)C[C@H]2[C@H](C)[C@H](OC(=O)[C@H]3[C@H](c4ccc(O)c(OC)c4)[C@H](C(=O)O[C@@H]4C[C@H]5C(=C)CN(C)C[C@H]5[C@@H]4C)[C@H]3c3ccc(O)c(OC)c3)C[C@@H]12
Mus musculus [1]
  inhibition in vivo at 20 mg/kg: 89.4%
Mus musculus [2]
  inhibition: Active
Mus musculus [3]
  Time: 87 s
Mus musculus [4]
  inhibition in vivo at 20 mg/kg: 77.8%

## NCC1(CC(=O)O)CCCCC1
Mus musculus [5]
  inhibition: Active

## C=CCN1C[C@H]2[C@H](C)[C@H](OC(=O)[C@H]3[C@H](c4ccc(O)c(OC)c4)[C@H](C(=O)O[C@@H]4C[C@@H]5[C@@H](CN(CC=C)C[C@@H]5C)[C@@H]4C)[C@H]3c3ccc(O)c(OC)c3)C[C@H]2[C@@H](C)C1
Mus musculus [4]
  inhibition in vivo at 20 mg/kg: 70.6%

## CCCN1C[C@H]2[C@H](C)[C@H](OC(=O)[C@H]3[C@H](c4ccc(O)c(OC)c4)[C@H](C(=O)O[C@@H]4C[C@@H]5[C@@H](CN(CCC)C[C@@H]5C)[C@@H]4C)[C@H]3c3ccc(O)c(OC)c3)C[C@H]2[C@@H](C)C1
Mus musculus [4]
  inhibition in vivo at 20 mg/kg: 48.2%

## COc1cc([C@H]2[C@H](C(=O)OCCC3CCN(C)CC3)[C@H](c3ccc(O)c(OC)c3)[C@H]2C(=O)OCCC2CCN(C)CC2)ccc1O
Mus musculus [4]
  inhibition in vivo at 20 mg/kg: 22.4%

## CC(=O)Oc1ccccc1C(=O)O [ASPIRIN DL-LYSINE]
Mus musculus [6]
  inhibition in vivo at 100 mg/kg: 85.4%
Mus musculus [7]
  inhibition in vivo at 100 mg/kg: 81.9%

## CCCCN1C[C@H]2[C@H](C)[C@H](OC(=O)[C@H]3[C@H](c4ccc(O)c(OC)c4)[C@H](C(=O)O[C@@H]4C[C@@H]5[C@@H](CN(CCCC)C[C@@H]5C)[C@@H]4C)[C@H]3c3ccc(O)c(OC)c3)C[C@H]2[C@@H](C)C1
Mus musculus [4]
  inhibition in vivo at 20 mg/kg: 13.1%

## COc1cc([C@H]2[C@H](C(=O)OCC3CCN(C)CC3)[C@H](c3ccc(O)c(OC)c3)[C@H]2C(=O)OCC2CCN(C)CC2)ccc1O
Mus musculus [2]
  inhibition: Active
Mus musculus [8]
  Time: 95 s
Mus musculus [4]
  inhibition in vivo at 20 mg/kg: 75.7%

## COc1cc([C@H]2[C@H](C(=O)O[C@@H]3C[C@@H]4[C@@H](CN(CC5CC5)C[C@@H]4C)[C@@H]3C)[C@H](c3ccc(O)c(OC)c3)[C@H]2C(=O)O[C@@H]2C[C@@H]3[C@@H](CN(CC4CC4)C[C@@H]3C)[C@@H]2C)ccc1O
Mus musculus [1]
  inhibition in vivo at 20 mg/kg: 88.1%

## COc1cc([C@H]2[C@H](C(=O)OC3CCN(C)CC3)[C@H](c3ccc(O)c(OC)c3)[C@H]2C(=O)OC2CCN(C)CC2)ccc1O
Mus musculus [4]
  inhibition in vivo at 20 mg/kg: 41.2%

## COc1cc([C@H]2[C@H](C(=O)O[C@@H]3C[C@@H]4[C@@H](CN(C)C[C@@H]4C)[C@@H]3C)[C@H](c3ccc(O)c(OC)c3)[C@H]2C(=O)O[C@@H]2C[C@@H]3[C@@H](CN(C)C[C@@H]3C)[C@@H]2C)ccc1O [INCARVILLATEINE]
Mus musculus [9]
  Time: 67 s
Mus musculus [10]
  Activity: Dose-dependent effect
Mus musculus [11]
  inhibition: Active
Mus musculus [1]
  inhibition in vivo at 20 mg/kg: 78.5%
Mus musculus [12]
  Time: 101 s
Mus musculus [13]
  Activity: Dose-dependent effect
Mus musculus [14]
  Time: 51 s
Mus musculus [15]
  Time: 1 s
Mus musculus [4]
  inhibition in vivo at 20 mg/kg: 69.2%

## COc1cc([C@H]2[C@H](C(=O)O[C@@H]3C[C@@H]4[C@@H](CN(C)C[C@H]4C)[C@@H]3C)[C@H](c3ccc(O)c(OC)c3)[C@H]2C(=O)O[C@@H]2C[C@@H]3[C@@H](CN(C)C[C@H]3C)[C@@H]2C)ccc1O
Mus musculus [4]
  inhibition in vivo at 20 mg/kg: 65.1%
